Measured values taken from PubChem BioAssay (NCI).
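Briefly, cells in 96-well plates were exposed to five compound concentrations for 48 h, and endpoints were estimated by linear interpolation. The concentration for full growth arrest is given as TGI.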

Key:
Assay in all cases: NCI tumour cell line growth inhibition, 48 h
[1] = tested on: HL-60(TB) leukemia
[2] = tested on: U251 CNS
[3] = tested on: PC-3 prostate
[4] = tested on: RPMI-8226 leukemia
[5] = tested on: OVCAR-8 ovarian
[6] = tested on: UACC-62 melanoma
[7] = tested on: HCT-116 colon
[8] = tested on: MDA-MB-435
[9] = tested on: COLO 205 colon
[10] = tested on: SK-OV-3 ovarian

`CSc1nc(Cl)c(Br)c(Nc2c[nH]c(=O)[nH]c2=O)n1` was tested. Which TGI [1] did it give?
The TGI was 5.47 µM.

And the TGI [2]?
Its TGI is 48.5 µM.

What about the TGI [3] of the same compound?
The TGI was 45.8 µM.

And the TGI [4]?
The TGI was greater than 100 µM.

What about the TGI [5] of the same compound?
Its TGI is 30.4 µM.

And the TGI [6]?
Its TGI is 31.4 µM.

What about the TGI [7] of the same compound?
Its TGI is 29.3 µM.

What about the TGI [8] of the same compound?
The TGI was 83.7 µM.

What about the TGI [9] of the same compound?
The TGI was 32.9 µM.

And the TGI [10]?
Its TGI is 42.7 µM.
